Where “and” joins values, the source holds several entries; their conditions need not be identical. Identical values can stand only once. Like-named read-outs stand apart in the source and are kept apart here.
How the values were obtained:
[1] = target: p97 (Homo sapiens, UniProt P55072); test: p97 ATPase assay (Kinase Glo Plus; biomol green for compounds that interfere with luciferase); type: biochemical
Experimental: Assay Buffer (20 μL of 2.5× concentration, where 1×=50 mM Tris pH 7.4, 20 mM MgCl2, 1 mM EDTA, 0.5 mM TCEP) was dispensed into each well of a 96 well plate. Purified p97 (25 μL of 50 μM) was diluted in 975 μL, of 1× Assay Buffer and 10 μL was dispensed in each well. Test compound (10 μL) or 5% DMSO (10 μL) was then added to each well and the plate was incubated at room temperature for 10 min. The ATPase assay was carried out by adding to each well 10 μL of 500 μM ATP (pH 7.5), incubating at room temperature for 60 min, and then adding 50 μL Kinase Glo Plus reagent (Promega) followed by a final 10 min incubation at room temperature in the dark. Luminescence was read on an Analyst AD (Molecular Devices). Compounds were assayed at a range of concentrations (0, 0.048, 0.24, 1.2, 6, 30 μM) in triplicate. The percent of remaining activity for each reaction was calculated using the following mathematical expression: ((Test Compound-High Control)/(Low Control-High Control))*100. Test_Compound is defined as wells containing test compound, Low_Control is defined as wells containing DMSO, High_Control is defined as wells containing no p97 protein. […] The result was expressed as mean +/− standard error. For assays with Myriad 12 and 19, 100 μL of biomol green reagent (Enzo Life Sciences) was added to each well instead of kinase Glo Plus (Promega) and absorbance at 630 nm was measured. This was done because these compounds interfered with luciferase activity. […]

[2] = system: p97-dependent Ub^G76V-GFP degradation in HeLa cells; test: Ub^G76V-GFP degradation (turn-over) assay; type: cell-based, human
Experimental: Ub^G76V-GFP Degradation Assay
Two GFP images with 100 ms exposure time per well were acquired and the average GFP intensity per area of a HeLa cell was determined by using MetaXpress software. Mean GFP intensity of 300-500 cells was calculated using Excel. Normalized GFP intensity was calculated using the following formula: (Test compound−Background)/(Basal GFP intensity—Background). Where: Test compound is defined as Mean GFP intensity of Ub^G76V-GFP-expressing cells treated with the test compound. Background is defined as background GFP intensity of HeLa cells. Basal GFP intensity is defined as mean GFP intensity of Ub^G76V-GFP-expressing cells treated with DMSO. […] The percent of remaining k for each compound is calculated using the following formula: (Test compound/DMSO control)*100. Where: Test_compound is defined as k determined from wells containing test compound, DMSO control is defined as k determined from wells containing DMSO.

[3] = purified p97, ATP, 60 min room temperature, mean +/- standard error
[4] = Homo sapiens, HeLa, read-out: IC50 (μM) Ub^G76V-GFP turn over, Ub^G76V-GFP-expressing HeLa cells, degradation rate constant k from 90 to 180 min, mean +/- standard error
[5] = Homo sapiens, HeLa, read-out: IC50 (μM) Ub^G76V-GFP turn over, p97-dependent Ub^G76V-GFP degradation turn-over assay

Chain of p97 (P55072 2-806 limits assumed): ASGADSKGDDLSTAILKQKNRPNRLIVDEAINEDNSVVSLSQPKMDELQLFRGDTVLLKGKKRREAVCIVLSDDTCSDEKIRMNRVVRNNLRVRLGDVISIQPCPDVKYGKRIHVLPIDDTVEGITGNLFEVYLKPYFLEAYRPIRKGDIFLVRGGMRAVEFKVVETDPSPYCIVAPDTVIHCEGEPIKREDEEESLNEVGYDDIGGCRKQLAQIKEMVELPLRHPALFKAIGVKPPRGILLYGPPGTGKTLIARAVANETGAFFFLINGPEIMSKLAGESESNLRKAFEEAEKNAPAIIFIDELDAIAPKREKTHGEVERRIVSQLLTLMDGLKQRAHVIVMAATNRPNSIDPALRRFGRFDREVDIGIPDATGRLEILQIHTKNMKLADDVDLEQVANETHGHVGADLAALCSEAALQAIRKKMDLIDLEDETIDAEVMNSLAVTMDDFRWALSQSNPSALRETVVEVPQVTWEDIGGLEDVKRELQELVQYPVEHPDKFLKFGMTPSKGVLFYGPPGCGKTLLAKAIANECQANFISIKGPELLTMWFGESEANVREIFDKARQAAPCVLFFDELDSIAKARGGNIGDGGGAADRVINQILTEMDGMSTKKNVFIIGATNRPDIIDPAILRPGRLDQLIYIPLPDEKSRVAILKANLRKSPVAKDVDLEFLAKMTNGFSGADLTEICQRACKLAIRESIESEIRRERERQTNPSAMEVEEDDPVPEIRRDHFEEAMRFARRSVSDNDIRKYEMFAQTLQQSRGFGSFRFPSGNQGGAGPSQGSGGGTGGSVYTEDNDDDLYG

Row | Structure (SMILES) | IC50 [1, 3] | IC50 [2, 4] [µM] | IC50 ([1]; p97 ATPase assay) [µM] | IC50 [2, 5] [µM] | IC50 ([2]; read-out: IC50 (μM) Ub^G76V-GFP turn over, Ub^G76V-GFP-expressing HeLa cells, degradation rate constant k from 90 to 180 min, mean +/- standard error) [µM]
1 | COc1cccc2c(NCc3ccccc3)nc(N3CCN(C(C)=O)c4ccccc43)nc12 [VII-13] | 2.7 ± 0.6 µM | 8 ± 1 | – | – | –
2 | N#Cc1ccc2c(NCc3ccccc3)nc(NCc3ccccc3)nc2c1 [VI-8] | – | – | 25 ± 10 | 21 ± 3 | –
3 | CN(Cc1ccccc1)c1nc(-c2ccccc2F)nc2ccccc12 [Cpd I-26] | – | – | 25 ± 4 | 6 ± 2 | –
4 | CC(Nc1nc(-c2ccccc2)nc2ccccc12)c1ccccc1 (stereo not drawn) [Cpd I-29] | – | – | 27 ± 14 | 13 ± 1 | –
5 | CCN(CC)CCOc1cccc2c(NCc3ccccc3)nc(N3CCOc4ccccc43)nc12 [VII-10] | 0.4 ± 0.08 µM | 5.3 ± 0.6 | – | – | –
6 | COc1c(Cl)cccc1Nc1nc(NCc2ccccc2)c2ccccc2n1 [V-1] | 0.9 ± 0.2 µM | 6.3 ± 1.7 | – | – | –
7 | Clc1ccc(Nc2nc(NCc3ccccc3)c3ccccc3n2)cc1Cl [II-17] | 8.1 ± 2.6 µM | 12 ± 2 | – | – | –
8 | Clc1cccc(CNc2nc(NCc3ccccc3)c3ccccc3n2)c1 [IV-12] | 2.7 ± 0.1 µM | 2.5 ± 0.4 | – | – | –
9 | COc1cccc2c(NCc3ccccc3O)nc(N3CCOc4ccccc43)nc12 [XII-8] | 4.6 ± 1 µM | 6 ± 0.6 | – | – | –
10 | COc1cccc2c(NCc3ccccc3)nc(Nc3nc4ccccc4n3C)nc12 [XI-6] | 0.3 ± 0.07 µM | 7.8 ± 1.2 | – | – | –
11 | COc1cccc2c(NCc3ccccc3)nc(NCc3cncs3)nc12 [XI-15] | 11 ± 1 µM | 10 ± 3 | – | – | –
12 | COc1ccc(-c2nc(NCc3ccc(Cl)cc3)c3ccccc3n2)cc1 [I-22] | 8 ± 2 µM | 9.3 ± 1 | – | – | –
13 | Clc1ccc(CNc2nc(Nc3cccc(Cl)c3)nc3ccccc23)cc1 [III-2] | 2.8 ± 0.9 µM | 7.6 ± 2.4 | – | – | –
14 | Clc1ccccc1-c1nc(N2CCCc3ccccc32)c2ccccc2n1 [XXIV] | – | – | > 30 | 11 ± 0.8 | –
15 | Oc1cccc2c(NCc3ccccc3)nc(N3CCOc4ccccc43)nc12 [VII-7] | 1.2 ± 0.3 µM | 7.7 ± 1.7 | – | – | –
16 | COc1ccc(Nc2nc(NCc3ccccc3)c3ccccc3n2)cc1 [II-6] | 3.8 µM and 3.5 µM | 4.5 ± 1.1 | – | – | 4.8 ± 0.7
17 | COc1c(F)cccc1Nc1nc(NCc2ccccc2)c2ccccc2n1 [V-4] | 1.7 ± 0.5 µM | 12 ± 3 | – | – | –
18 | Cc1ccc2c(NCc3ccccc3)nc(NCc3ccccc3)nc2c1 [VI-6] | 2.2 ± 0.4 µM | 6.1 ± 1.6 | – | – | –
19 | COc1cccc2c(NCc3ccccc3)nc(N(C)Cc3ccccc3)nc12 [XI-12] | 7 ± 3 µM | > 20 | – | – | –
20 | Cc1c(Cl)cccc1Nc1nc(N)nc(CCl)n1 [XVI] | 18 ± 8 µM | 5.9 ± 1 | – | – | –
21 | Brc1ccc(Nc2nc(NCc3ccccc3)c3ccccc3n2)cc1 [II-5] | 1.8 ± 0.4 µM | 6 ± 0.8 | – | – | –
22 | OCCOc1cccc2c(NCc3ccccc3)nc(N3CCOc4ccccc43)nc12 [VII-9] | 0.17 ± 0.05 µM | 3.8 ± 0.8 | – | – | –
23 | CC(C)Nc1nc(Nc2cccc(Cl)c2)nc2ccccc12 [XLII] | – | – | > 30 | 11 ± 2 | –
24 | Fc1ccc(CNc2nc(-c3ccc(Cl)cc3)nc3ccccc23)cc1 [I-23] | 8 ± 0.2 µM | 20 ± 5 | – | – | –
25 | Fc1ccc(CNc2nc(Nc3cccc(Cl)c3)nc3ccccc23)cc1 [III-3] | 1.5 ± 0.3 µM | 5.7 ± 1.3 | – | – | –
26 | CCCCc1cccc2c(NCc3ccccc3)nc(N3CCOc4ccccc43)nc12 [VII-15] | – | – | 2.63 ± 0.7 | 28 ± 3 | –

Row | Structure (SMILES) | IC50 [1, 3] | IC50 [2, 4] [µM] | IC50 ([1]; p97 ATPase assay) [µM] | IC50 [2, 5] [µM] | IC50 ([2]; read-out: IC50 (μM) Ub^G76V-GFP turn over, Ub^G76V-GFP-expressing HeLa cells, degradation rate constant k from 90 to 180 min, mean +/- standard error) [µM]
27 | Clc1ccc(-c2nc(NCc3ccccc3)c3ccccc3n2)cc1 [I-6] | 5.5 ± 1.9 µM | 20 ± 3 | – | – | –
28 | Fc1ccccc1Nc1nc(NCc2ccccc2)c2ccccc2n1 [II-9] | 0.85 ± 0.17 µM | 10 ± 2 | – | – | –
29 | COc1cccc2c(NCc3ccccc3)nc(NC(N)=O)nc12 [XI-3] | – | – | 49 ± 10 | 108 ± 31 | –
30 | COc1ccc(-c2nc(NCc3ccc(F)cc3)c3ccccc3n2)cc1 [I-17] | 7.8 ± 0.4 µM | 9.8 ± 3 | – | – | –
31 | COc1cccc2c(NCc3ccccc3)nc(NCc3ccccc3)nc12 [VI-5, N2,N4-dibenzyl-8-methoxyquinazoline-2,4-diamine] | 0.6 ± 0.06 µM | 10 ± 2 | – | – | –
32 | COc1cccc2c(NCc3ccccc3)nc(N3CCNc4ccccc43)nc12 [VII-5] | 0.9 ± 0.1 µM | 3.7 ± 0.2 | – | – | –
33 | Cc1nc(N2CCOc3ccccc32)nc(NCc2ccccc2)c1C [X] | 1.1 ± 0.2 µM | 10 ± 1 | – | – | –
34 | COc1cccc2c(NCc3ccc(F)cc3)nc(N3CCOc4ccccc43)nc12 [XII-4] | 1.9 ± 0.4 µM | 3.7 ± 0.6 | – | – | –
35 | COc1cccc(Nc2nc(NCc3ccccc3)c3ccccc3n2)c1 [II-16] | 2.5 ± 0.2 µM | 4.3 ± 0.7 | – | – | –
36 | Fc1ccc(CNc2nc(NCc3ccccc3)c3ccccc3n2)cc1 [IV-3] | 2.6 ± 0.2 µM | 3.4 ± 0.5 | – | – | –
37 | COc1ccc(CNc2nc(-c3ccc(OC)cc3)nc3ccccc23)cc1 [I-20] | 13 ± 4 µM | 15 ± 5 | – | – | –
38 | Cc1ccc(F)cc1Nc1nc(NCc2ccccc2)c2ccccc2n1 [V-6] | 0.8 ± 0.1 µM | 5 ± 1 | – | – | –
39 | COc1cc2nc(NCc3ccccc3)nc(NCc3ccccc3)c2cc1OC [VI-4] | 4.4 ± 1.8 µM | 8.8 ± 1.5 | – | – | –
40 | COc1cccc2c(NCc3ccccc3)nc(-n3c(N)nc4cc(C)c(C)cc43)nc12 [XXI-1] | – | – | 2 ± 0.4 | 89 ± 39 | –
41 | c1ccc(CNc2nc(N3CCCc4ccccc43)nc3ccccc23)cc1 [VII-1] | 4.4 ± 1.8 µM | 10 ± 2 | – | – | –
42 | c1ccc(CNc2nc(N3CCOc4ccccc43)nc3c(-c4ccccc4)cccc23)cc1 [VII-8] | 3.5 ± 0.6 µM | 5 ± 0.9 | – | – | –
43 | Clc1ccc(CNc2nc(-c3ccccc3)nc3ccccc23)cc1 [Cpd I-15] | – | – | > 30 | 15 ± 3 | –
44 | c1ccc(CNc2nc(N3CCN(Cc4ccccc4)CC3)nc3ccccc23)cc1 [XXIII] | – | – | 33 ± 8 | 12 ± 1 | –
45 | Brc1ccccc1Nc1nc(NCc2ccccc2)c2ccccc2n1 [II-10] | – | – | 64 ± 24 | 13 ± 2 | –
46 | Clc1ccc(CNc2nc(NCc3ccccc3)c3ccccc3n2)cc1 [IV-2] | 3.1 ± 0.2 µM | 2.1 ± 0.4 | – | – | –
47 | Clc1ccccc1Nc1nc(NCc2ccccc2)c2ccccc2n1 [II-8] | – | – | 69 ± 25 | 13 ± 2 | –
48 | c1ccc(CNc2nc(N3CCOc4ccccc43)nc3ccccc23)cc1 [VII-3] | 0.6 ± 0.2 µM | 7 ± 1.9 | – | – | –
49 | c1ccc(CNc2nc(N3CCNc4ccccc43)nc3ccccc23)cc1 [VII-4] | 0.4 ± 0.05 µM | 6.3 ± 1 | – | – | –
50 | COc1cccc2c(NCc3ccccc3)nc(-n3c(=O)oc4ccccc43)nc12 [VII-17] | 0.11 ± 0.03 µM | 5 ± 1 | – | – | –
51 | COc1cccc2c(NCc3ccccc3)nc(Nc3cc(C)cc(F)c3)nc12 [XI-18] | 1.5 ± 0.2 µM | 7.1 ± 0.5 | – | – | –
52 | FC(F)(F)c1cc(CNc2nc(NCc3ccccc3)c3ccccc3n2)ccc1Cl [IV-18] | 4.7 ± 1 µM | 2.2 ± 0.4 | – | – | –
